# Laboratory results reported in patent publication US20100317046A1, “Non-Endogenous, Constitutively Activated Versions of Human G Protein Coupled Receptor: FSHR” (priority 2002, published 2010).
# Substitutions are numbered along the chain they refer to.
# Columns and labels:
# [1] = biological target: T1, non-endogenous FSHR ("L460R") (Homo sapiens, UniProt P23945, E197A/L198V/L460R/N112T); assay: Alpha Screen cAMP accumulation, non-endogenous constitutively activated FSHR (L460R); assay type: cell-based; details: L460R versus WT, FIG. 3
# T1 construct: expressed in transfected cells
# T1 sequence (P23945 18-695 N112T/E197A/L198V/L460R): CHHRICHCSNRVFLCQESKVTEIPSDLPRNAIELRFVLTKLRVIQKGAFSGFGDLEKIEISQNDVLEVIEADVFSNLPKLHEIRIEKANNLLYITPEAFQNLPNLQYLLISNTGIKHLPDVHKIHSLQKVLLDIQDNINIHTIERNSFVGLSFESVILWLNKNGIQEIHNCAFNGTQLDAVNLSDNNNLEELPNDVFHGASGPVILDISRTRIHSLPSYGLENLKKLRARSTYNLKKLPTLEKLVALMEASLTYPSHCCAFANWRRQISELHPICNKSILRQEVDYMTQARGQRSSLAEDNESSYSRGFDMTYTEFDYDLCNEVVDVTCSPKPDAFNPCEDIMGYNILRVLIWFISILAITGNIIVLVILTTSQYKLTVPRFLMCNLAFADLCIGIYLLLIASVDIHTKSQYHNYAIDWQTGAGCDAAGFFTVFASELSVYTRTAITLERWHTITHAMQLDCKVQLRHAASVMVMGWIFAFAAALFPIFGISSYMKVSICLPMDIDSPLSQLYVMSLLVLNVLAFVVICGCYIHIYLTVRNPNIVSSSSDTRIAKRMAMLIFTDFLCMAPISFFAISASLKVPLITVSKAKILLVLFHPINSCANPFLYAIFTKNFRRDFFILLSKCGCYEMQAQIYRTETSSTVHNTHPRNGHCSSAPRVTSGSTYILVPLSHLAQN
# Description: (§1) Approximately 12×10^6 293 cells are plated on a 15 cm tissue culture plate. Grown in DME High Glucose Medium containing ten percent fetal bovine serum and one percent sodium pyruvate, L-glutamine, and anti-biotics. Twenty-four hours following plating of 293 cells (or to ˜80% confluency), the cells are transfected using 12 μg of DNA. The 12 μg of DNA is combined with 60 μl of lipofectamine and 2 mL of DME High Glucose Medium without serum. The medium is aspirated from the plates and the cells are washed once with medium without serum. The DNA, lipofectamine, and medium mixture are added to the plate along with 10 mL of medium without serum. Following incubation at 37 degrees Celsius for four to five hours, the medium is aspirated and 25 ml of medium containing serum is added. Twenty-four hours following transfection, the medium is aspirated again, and fresh medium with serum is added. Forty-eight hours following transfection, the medium is aspirated and medium with serum is added containing geneticin (G418 drug) at a final concentration of 500 μg/mL. The transfected cells will undergo selection for positively transfected cells containing the G418 resistant gene. […]
# (§2) The media from Example 3(b) above was aspirated and rinsed 1× with PBS (5-10 ml/flask). […] Following incubation, the wells were read on Alpha Quest and measured for light units. […]
# endogenous FSHR ("WT") = biological target: T2, endogenous FSHR ("WT") (Homo sapiens, UniProt P23945, E197A/L198V/N112T); assay: Alpha Screen cAMP accumulation, endogenous FSHR (WT); assay type: cell-based; details: 293 cells expressing WT FSHR, FIG. 3
# T2 construct: The 2.1 kb PCR fragment was then cloned into EcoRV-EcoRI site of CMVp expression vector; expressed in transfected cells
# T2 sequence (P23945 18-695 N112T/E197A/L198V): T1 sequence (P23945 18-695 N112T/E197A/L198V/L460R) with R443L
# Description: as §1, §2
smiles,measurement,setting,value
"CCCCCc1ccc(C(=O)N2CCCCC2C(=O)Nc2ccc3c(c2)c2ccccc2n3CC)c(=O)o1 (centres unmarked) [Compound A, 1-[(2-oxo-6-pentyl-2H-pyran)-3-carbonyl]-piperidine-2-carboxylic acid-3-(9-ethylcarbazolyl) amide]",efficacy for L460R version of FSHR compared with the WT receptor,[1],better efficacy
same,EC50,"endogenous FSHR (""WT"")",~3 nM
